# Experimental data from patent publication US20120115845A1, “THERAPEUTIC AGENTS” (priority 2007, published 2012).
# Key:
# human GHS receptor [1] = target: T1, human GHS receptor (Homo sapiens, UniProt Q92847); assay: h bind IC50 (binding assay, Table 1); conditions: human receptor; Table 1
# human GHS receptor [2] = target: T1, human GHS receptor; assay: Ghrelin IP1 agonist assay (IP1 HTRF); format: cell-based; set-up: expressed in transfected cells; host or cells: HEK293s; conditions: for Emax: 2 h, agonist effect as % maximal effect of GHRP-6 (5 μM), read-out: h IP1 ag %; for EC50: HEK293s cells stably expressing human GHS receptor, 2 hours at 37° C., read-out: h IP1 ag EC50
# How it was run: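 Cells: HEK293s stably expressing human GHS receptor, in stimulation buffer containing 0.02% fatty acid free BSA.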
# T1 sequence (Q92847 whole entry): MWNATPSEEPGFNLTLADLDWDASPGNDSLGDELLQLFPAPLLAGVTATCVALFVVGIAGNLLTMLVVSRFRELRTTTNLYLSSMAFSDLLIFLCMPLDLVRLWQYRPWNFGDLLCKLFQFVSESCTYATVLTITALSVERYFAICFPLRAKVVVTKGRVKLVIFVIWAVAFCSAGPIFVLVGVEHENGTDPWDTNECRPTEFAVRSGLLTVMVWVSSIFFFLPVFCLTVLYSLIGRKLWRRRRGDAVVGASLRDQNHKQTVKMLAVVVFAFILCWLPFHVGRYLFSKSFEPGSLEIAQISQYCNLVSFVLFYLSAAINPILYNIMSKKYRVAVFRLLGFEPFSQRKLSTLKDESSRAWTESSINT
Structure (SMILES),IC50 (human GHS receptor [1]),Emax (human GHS receptor [2]),EC50 (human GHS receptor [2])
"CS(=O)(=O)c1ccc2nc(NC(=O)NC(=O)c3cc(-c4cncs4)ccc3Cl)sc2c1 [Example 68, 2-chloro-N-(6-(methylsulfonyl)benzothiazol-2-ylcarbamoyl)-5-(thiazol-5-yl)benzamide]",44.1 nM,0%,> 25000 nM
"CS(=O)(=O)c1ccc2nc(NC(=O)NC(=O)c3cc([N+](=O)[O-])ccc3Cl)sc2c1 [Example 70, 2-Chloro-N-(6-(methylsulfonyl)benzothiazol-2-ylcarbamoyl)-5-nitrobenzamide]",141 nM,0.5%,389 nM
"CCN(CC)CCCS(=O)(=O)c1ccc2nc(NC(=O)NC(=O)c3cc(-n4cccc4)ccc3Cl)sc2c1 [Example 71, 2-Chloro-N-[[6-(3-diethylaminopropylsulfonyl)benzothiazol-2-yl]carbamoyl]-5-pyrrol-1-yl-benzamide]",0.4 nM,0.0469%,≥ 25000 nM
"O=C(NC(=O)c1cc(-n2cccc2)ccc1Cl)Nc1nc2ccc(S(=O)(=O)CCCNCC3CC3)cc2s1 [Example 72, 2-Chloro-N-[[6-[3-(cyclopropylmethylamino)propylsulfonyl]benzothiazol-2-yl]carbamoyl]-5-pyrrol-1-yl-benzamide]",0.3 nM,6.6%,6070 nM
"O=C(NC(=O)c1cc(-n2cccc2)ccc1Cl)Nc1nc2ccc(S(=O)(=O)CCCN3CCNCC3)cc2s1 [Example 73, 2-Chloro-N-[[6-(3-piperazin-1-ylpropylsulfonyl)benzothiazol-2-yl]carbamoyl]-5-pyrrol-1-yl-benzamide]",1.3 nM,2.25%,≥ 25000 nM
"O=C(NC(=O)c1cc(-n2cccc2)ccc1Cl)Nc1nc2ccc(S(=O)(=O)[C@H]3CCNC3)cc2s1 [Example 77, 2-Chloro-N-[[6-[(3S)-pyrrolidin-3-yl]sulfonylbenzothiazol-2-yl]carbamoyl]-5-pyrrol-1-yl-benzamide]",1.7 nM,0.911%,≥ 25000 nM
"COCCNCCS(=O)(=O)c1ccc2nc(NC(=O)NC(=O)c3cc(-n4cccc4)ccc3Cl)sc2c1 [Example 80, 2-Chloro-N-[[6-[2-(2-methoxyethylamino)ethylsulfonyl]benzothiazol-2-yl]carbamoyl]-5-pyrrol-1-yl-benzamide]",2.2 nM,9.77%,≥ 25000 nM
"CN1CCN(CCCS(=O)(=O)c2ccc3nc(NC(=O)NC(=O)c4cc(-n5cccc5)ccc4Cl)sc3c2)CC1 [Example 85, 2-Chloro-N-(6-(3-(4-methylpiperazin-1-yl)propylsulfonyl)benzothiazol-2-ylcarbamoyl)-5-(1H-pyrrol-1-yl)benzamide]",0.2 nM,0.18%,≥ 25000 nM
"CN1CCN(CCCS(=O)(=O)c2ccc3nc(NC(=O)NC(=O)c4cc(-c5ccccn5)ccc4Cl)sc3c2)CC1 [Example 86, 2-Chloro-N-(6-(3-(4-methylpiperazin-1-yl)propylsulfonyl)benzothiazol-2-ylcarbamoyl)-5-(pyridin-2-yl)benzamide]",0.7 nM,0.64%,≥ 25000 nM
"CN1CCN(CCCS(=O)(=O)c2ccc3nc(NC(=O)NC(=O)c4cc(-n5cccn5)ccc4Cl)sc3c2)CC1 [Example 88, 2-Chloro-N-(6-(3-(4-methylpiperazin-1-yl)propylsulfonyl)benzothiazol-2-ylcarbamoyl)-5-(1H-pyrazol-1-yl)benzamide]",0.7 nM,4.42%,≥ 25000 nM
"CN1CCN(CCCS(=O)(=O)c2ccc3nc(NC(=O)NC(=O)c4cc(OS(C)(=O)=O)ccc4Cl)sc3c2)CC1 [Example 92, 4-Chloro-3-(6-(3-(4-methylpiperazin-1-yl)propylsulfonyl)benzothiazol-2-ylcarbamoylcarbamoyl)phenyl methanesulfonate]",10.1 nM,4.99%,> 4870 nM
"CCOc1ccc(Cl)c(C(=O)NC(=O)Nc2nc3ccc(S(=O)(=O)CCCN4CCN(C)CC4)cc3s2)c1 [Example 93, 2-Chloro-5-ethoxy-N-(6-(3-(4-methylpiperazin-1-yl)propylsulfonyl)benzothiazol-2-ylcarbamoyl)benzamide]",1.7 nM,3.9%,30.1 nM
"CN1CCN(CCCS(=O)(=O)c2ccc3nc(NC(=O)NC(=O)c4cc(C5CC5)ccc4Cl)sc3c2)CC1 [Example 94, 2-Chloro-5-cyclopropyl-N-(6-(3-(4-methylpiperazin-1-yl)propylsulfonyl)benzothiazol-2-ylcarbamoyl)benzamide]",0.3 nM,18.1%,7.24 nM
"CS(=O)(=O)c1ccc2nc(NC(=O)NC(=O)c3ccccc3Cl)sc2c1 [Example 102, 2-Chloro-N-[(6-methylsulfonylbenzothiazol-2-yl)carbamoyl]benzamide]",116 nM,24.2%,57.8 nM
"CS(=O)(=O)c1ccc2nc(NC(=O)NC(=O)c3ccccc3Br)sc2c1 [Example 103, 2-Bromo-N-[(6-methylsulfonylbenzothiazol-2-yl)carbamoyl]benzamide]",239 nM,20.5%,454 nM

# The remaining lines, values ahead:
IC50 (human GHS receptor [1]),Emax (human GHS receptor [2]),EC50 (human GHS receptor [2]),Structure (SMILES)
37.4 nM,14.1%,3010 nM,"CS(=O)(=O)c1ccc2nc(NC(=O)NC(=O)c3cc(-n4ccnc4)ccc3Cl)sc2c1 [Example 69, 2-Chloro-5-(1H-imidazol-1-yl)-N-(6-(methylsulfonyl)benzothiazol-2-ylcarbamoyl)benzamide]"
0.8 nM,0.81%,4220 nM,"O=C(NC(=O)c1cc(-n2cccc2)ccc1Cl)Nc1nc2ccc(S(=O)(=O)[C@@H]3CCNC3)cc2s1 [Example 78, 2-Chloro-N-[[6-[(3R)-pyrrolidin-3-yl]sulfonylbenzothiazol-2-yl]carbamoyl]-5-pyrrol-1-yl-benzamide]"
0.6 nM,1.95%,≥ 25000 nM,"O=C(NC(=O)c1cc(-n2cccc2)ccc1Cl)Nc1nc2ccc(S(=O)(=O)CCN3CCNCC3)cc2s1 [Example 79, 2-Chloro-N-[[6-(2-piperazin-1-ylethylsulfonyl)benzothiazol-2-yl]carbamoyl]-5-pyrrol-1-yl-benzamide]"
1.3 nM,0%,≥ 25000 nM,"CC(C)NCCS(=O)(=O)c1ccc2nc(NC(=O)NC(=O)c3cc(-n4cccc4)ccc3Br)sc2c1 [Example 83, 2-Bromo-N-(6-(2-(isopropylamino)ethylsulfonyl)benzothiazol-2-ylcarbamoyl)-5-(1H-pyrrol-1-yl)benzamide]"
0.2 nM,0.631%,6560 nM,"CN1CCN(CCCS(=O)(=O)c2ccc3nc(NC(=O)NC(=O)c4cc(N5CCCC5)ccc4Cl)sc3c2)CC1 [Example 87, 2-Chloro-N-(6-(3-(4-methylpiperazin-1-yl)propylsulfonyl)benzothiazol-2-ylcarbamoyl)-5-(pyrrolidin-1-yl)benzamide]"
0.7 nM,0%,> 25000 nM,"Cc1ccnn1-c1ccc(Cl)c(C(=O)NC(=O)Nc2nc3ccc(S(=O)(=O)CCCN4CCN(C)CC4)cc3s2)c1 [Example 90, 2-Chloro-5-(5-methyl-1H-pyrazol-1-yl)-N-(6-(3-(4-methylpiperazin-1-yl)propylsulfonyl)benzothiazol-2-ylcarbamoyl)benzamide]"
0.5 nM,0.5%,4820 nM,"Cc1ccn(-c2ccc(Cl)c(C(=O)NC(=O)Nc3nc4ccc(S(=O)(=O)CCCN5CCN(C)CC5)cc4s3)c2)n1 [Example 91, 2-Chloro-5-(3-methyl-1H-pyrazol-1-yl)-N-(6-(3-(4-methylpiperazin-1-yl)propylsulfonyl)benzothiazol-2-ylcarbamoyl)benzamide]"
10.7 nM,9.48%,1160 nM,"CN1CCN(CCCS(=O)(=O)c2ccc3nc(NC(=O)NC(=O)c4cc(-n5cncn5)ccc4Cl)sc3c2)CC1 [Example 95, 2-Chloro-N-(6-(3-(4-methylpiperazin-1-yl)propylsulfonyl)benzothiazol-2-ylcarbamoyl)-5-(1H-1,2,4-triazol-1-yl)benzamide]"
2.9 nM,13.1%,432 nM,"CN1CCN(CCCS(=O)(=O)c2ccc3nc(NC(=O)NC(=O)c4cc(-c5cncs5)ccc4Cl)sc3c2)CC1 [Example 96, 2-Chloro-N-(6-(3-(4-methylpiperazin-1-yl)propylsulfonyl)benzothiazol-2-ylcarbamoyl)-5-(thiazol-5-yl)benzamide]"
4.2 nM,8.13%,4.28 nM,"CCN(CC)CCCS(=O)(=O)c1ccc2nc(NC(=O)NC(=O)c3cc(N4CCOCC4)ccc3Cl)sc2c1 [Example 97, 2-Chloro-N-(6-(3-(diethylamino)propylsulfonyl)benzothiazol-2-ylcarbamoyl)-5-morpholinobenzamide]"
8.7 nM,9.19%,1.5 nM,"CCN(CC)CCCS(=O)(=O)c1ccc2nc(NC(=O)NC(=O)c3cc(-n4cccn4)ccc3Cl)sc2c1 [Example 98, 2-Chloro-N-(6-(3-(diethylamino)propylsulfonyl)benzothiazol-2-ylcarbamoyl)-5-(1H-pyrazol-1-yl)benzamide]"
27.3 nM,0%,≥ 20000 nM,"CN1CCC(S(=O)(=O)c2ccc3nc(NC(=O)NC(=O)c4cc(-n5cccn5)ccc4Cl)sc3c2)CC1 [Example 100, 2-Chloro-N-(6-(1-methylpiperidin-4-ylsulfonyl)benzothiazol-2-ylcarbamoyl)-5-(1H-pyrazol-1-yl)benzamide]"
284 nM,7.89%,206 nM,"CS(=O)(=O)c1ccc2nc(NC(=O)NC(=O)c3c(Cl)cccc3Cl)sc2c1 [Example 101, 2,6-Dichloro-N-[(6-methylsulfonylbenzothiazol-2-yl)carbamoyl]benzamide]"
